Data published in patent US20230391838A1 (priority 2020, published 2023).
*1 amine or outer side, *2 acyl side, *3 side chain or, on linkers, in order; H or OH if unused. Where a SMILES comes first, the peptide text is derived from it. Bridges are numbered along the chain shown (N, C = ends). [ ]: non-standard residue; d: D form. Tyr(3-I) = N[C@@H](Cc1ccc(O)c(I)c1)C(=O)O; β3hY = N[C@H](CC(=O)O)Cc1ccc(O)cc1; CH2 = C([*:1])[*:2]

Conditions: pH 7.4

## C[C@@H](O)[C@@H]1NC(=O)[C@@H]2CSCSC[C@@H](C(=O)N[C@H](CC(=O)N[C@@H](CCCNC(=N)N)C(=O)O)Cc3ccc(O)cc3)NC(=O)[C@H](CCC(N)=O)NC(=O)[C@H](Cc3ccc(O)c(I)c3)NC(=O)[C@H](CCCNC(=N)N)NC(=O)[C@H](CSSC[C@H](NC(=O)CN)C(=O)N2)NC(=O)[C@H](CCCNC(=N)N)NC(=O)[C@@H]2CCCN2C(=O)[C@H](CC(=O)O)NC1=O [RgIA-5524, G C^I C^II T D P R C^III R (iY) Q C^IV (bhY) R] (H-GCCTDPRCR[Tyr(3-I)]QC[β3hY]R-OH; disulfide 2-8; linker 3-12 via CH2)
  disulfide scrambling in presence of reduced glutathione (in words): largely suppress disulfide scrambling
